Measured values as given in US12123028B2, “Viral inactivation methods for continuous manufacturing of antibodies” (Bayer HealthCare LLC, priority 2018, dated 2024).
Entries after “also recorded” stand apart in the source; their conditions may differ.

Tests used:
[1] = test system: X-MuLV; assay: X-MuLV inactivation by detergent in neutralized mAb protein A eluate, remaining infectivity by TCID50 assay on PG-4 cells; assay type: cell-based, Xenotropic Murine Leukemia Virus; details: 16° C.
Method: The pH of various protein A eluates was adjusted to 7.0 with 1M Tris buffer. The pH adjusted eluate was then filtered through a 0.22 um filter. Various volumes of 5% stock solution of Mega-10, Tween 20, or Tween 80 were added to the filtered neutralized protein A eluates. This was done to prepare protein A eluates containing various concentrations of each detergent. X-MuLV was then spiked at a 1:20 ratio to the neutralized protein A eluate containing various concentrations of each detergent that had been pre-incubated at a 16° C. water bath prior to the virus spiking. After a thorough mixing, an aliquot of a sample was removed immediately and quenched with a diluent (McCoy's medium containing 3 μg/mL of polybrene) at 1:12 for Mega-10 or at 1:100 for Tween 20 and Tween 80 to stop the inactivation, and the sample was designated as a time-zero sample. The remaining spiked eluate was returned to the water bath and the samples were collected at the indicated time to evaluate the viral inactivation kinetics.
The remaining X-MuLV infectivity in the samples post-inactivation treatment was determined by a TCID50 assay that is an endpoint dilution assay to quantify the amount of virus required to produce a cytopathic effect in 50% of inoculated tissue culture cells. Virus titers were estimated using the Spearman-Karber method and reported as TCID50/mL with a calculated 95% confidence interval (CI). Briefly, a sufficient number of 96-well plates with PG-4 (feline S^+L^−, ATCC#CRL-2032) cells were prepared the day before starting the viral inactivation experiments and incubated overnight in a 37° C. humidified CO2 incubator. A set of ten 3.2 fold dilution of the diluted positive control (1:100) and viral inactivated samples were prepared in a dilution block. Each set of the 11 serial dilutions of the samples were inoculated correspondingly onto wells (100 μL per well) of the first 11 columns in a 96-well plate that had been pre-seeded with PG-4 cells. The 12th column in the same plate was inoculated with the corresponding diluent to serve as non-virus negative control. The positive control was prepared by spiking the filtered neutralized protein A eluate with X-MuLV at a 1:20 ratio. The inoculated plates were then incubated in a 37° C. humidified CO2 incubator for approximate 2 hours. A volume of 100 uL of 2× assay medium (92% McCoy's 5A medium, 4% FBS, 2% Penicillin/Streptomycin, 2% L-Glutamine) was added to each well of the plates at the end of incubation. The plates were then returned to the same incubator, and continued incubation for 6 days. Each well of the plates were scored under a microscope for the presence of cytopathic effect (CPE) and the results were recorded in a scoring sheet. Virus titers were then estimated using the Spearman-Karber method and reported as TCID50/mL with a calculated 95% confidence interval (CI).
To evaluate robustness of X-MuLV inactivation by Mega-10 in Protein A eluates of mAb1, X-MuLV was spiked at a 1:20 ratio into the neutralized mAb1 protein A eluate contain 0.1%, 0.2% and 0.3% of Mega-10. After a thorough mixing, an aliquot of sample was removed at 0, 2.5, 5, 10, and 30 minutes after incubation at 16° C. The remaining virus titer in the collected samples was determined by the TCID50 assay.

[2] = test system: aquatic environment; details: cited from earlier work
[3] = 0.1% Mega-10, neutralized mAb1 protein A eluate pH 7.01, incubation 0 minutes
[4] = 0.1% Mega-10, neutralized mAb1 protein A eluate pH 7.01, incubation 2.5 minutes
[5] = 0.1% Mega-10, neutralized mAb1 protein A eluate pH 7.01, incubation 5.0 minutes
[6] = 0.1% Mega-10, neutralized mAb1 protein A eluate pH 7.01, incubation 10 minutes
[7] = 0.1% Mega-10, neutralized mAb1 protein A eluate pH 7.01, incubation 30 minutes
[8] = 0.1% Mega-10, neutralized mAb2 protein A eluate pH 7.01, incubation 0 minutes
[9] = 0.1% Mega-10, neutralized mAb2 protein A eluate pH 7.01, incubation 2.5 minutes
[10] = 0.1% Mega-10, neutralized mAb2 protein A eluate pH 7.01, incubation 5.0 minutes
[11] = 0.1% Mega-10, neutralized mAb2 protein A eluate pH 7.01, incubation 10 minutes
[12] = 0.1% Mega-10, neutralized mAb2 protein A eluate pH 7.01, incubation 30 minutes
[13] = 0.2% Mega-10, neutralized mAb1 protein A eluate pH 7.01, incubation 0 minutes
[14] = 0.2% Mega-10, neutralized mAb1 protein A eluate pH 7.01, incubation 5.0 minutes
[15] = 0.2% Mega-10, neutralized mAb1 protein A eluate pH 7.01, incubation 10 minutes
[16] = 0.2% Mega-10, neutralized mAb1 protein A eluate pH 7.01, incubation 30 minutes
[17] = 0.2% Mega-10, neutralized mAb2 protein A eluate pH 7.01, incubation 0 minutes
[18] = 0.2% Mega-10, neutralized mAb2 protein A eluate pH 7.01, incubation 2.5 minutes
[19] = 0.2% Mega-10, neutralized mAb2 protein A eluate pH 7.01, incubation 5.0 minutes
[20] = 0.2% Mega-10, neutralized mAb2 protein A eluate pH 7.01, incubation 10 minutes
[21] = 0.3% Mega-10, neutralized mAb1 protein A eluate pH 7.01, incubation 0 minutes
[22] = 0.3% Mega-10, neutralized mAb1 protein A eluate pH 7.01, incubation 5.0 minutes
[23] = 0.3% Mega-10, neutralized mAb1 protein A eluate pH 7.01, incubation 10 minutes
[24] = 0.3% Mega-10, neutralized mAb1 protein A eluate pH 7.01, incubation 30 minutes
[25] = 0.3% Mega-10, neutralized mAb2 protein A eluate pH 7.01, incubation 0 minutes
[26] = 0.3% Mega-10, neutralized mAb2 protein A eluate pH 7.01, incubation 5.0 minutes
[27] = 0.3% Mega-10, neutralized mAb2 protein A eluate pH 7.01, incubation 10 minutes
[28] = 0.3% Mega-10, neutralized mAb2 protein A eluate pH 7.01, incubation 30 minutes

## CCCCCCCCCC(=O)N(C)C[C@H](O)[C@@H](O)[C@H](O)[C@H](O)CO [Mega-10, N-Methylglucamide]
[1]; 0.10% Mega 10 alone, neutralized mAb1 protein A eluate, 0 minutes (Table 2)
  LRF ± 95% CL: 0.33 ± 0.35
[1]; 0.10% Mega 10 alone, neutralized mAb1 protein A eluate, 2.5 minutes (Table 2)
  LRF ± 95% CL: 0.33±0.29
[1]; 0.10% Mega 10 alone, neutralized mAb1 protein A eluate, 2.5 minutes (Table 2), listed as Mega 10
  LRF ± 95% CL: 0.33 ± 0.29
[1]; 0.10% Mega 10 alone, neutralized mAb1 protein A eluate, 5 minutes (Table 2)
  LRF ± 95% CL: 0.33 ± 0.32
[1]; 0.10% Mega 10 alone, neutralized mAb1 protein A eluate, 10 minutes (Table 2)
  LRF ± 95% CL: 0.39 ± 0.36
[1]; 0.10% Mega 10 alone, neutralized mAb1 protein A eluate, 30 minutes (Table 2)
  LRF ± 95% CL: 0.64 ± 0.33
[1]; [3]
  LRF ± 95% CL: 0.26 ± 0.28
  Log10 TCID50/mL: 6.53 ± 0.20 Log10 TCID50/mL
[1]; [4]
  LRF ± 95% CL: 0.38 ± 0.32
  Log10 TCID50/mL: 6.41 ± 0.26 Log10 TCID50/mL
[1]; [5]
  LRF ± 95% CL: 0.38 ± 0.28
  Log10 TCID50/mL: 6.41 ± 0.21 Log10 TCID50/mL
[1]; [6]
  LRF ± 95% CL: 0.38 ± 0.28
  Log10 TCID50/mL: 6.41 ± 0.20 Log10 TCID50/mL
[1]; [7]
  LRF ± 95% CL: 0.38 ± 0.23
  Log10 TCID50/mL: 6.41 ± 0.12 Log10 TCID50/mL
[1]; [8]
  LRF ± 95% CL: 0.36 ± 0.28
  Log10 TCID50/mL: 6.56 ± 0.22 Log10 TCID50/mL
[1]; [9]
  LRF ± 95% CL: 0.36 ± 0.28
  Log10 TCID50/mL: 6.56 ± 0.22 Log10 TCID50/mL
[1]; [10]
  LRF ± 95% CL: 0.36 ± 0.25
  Log10 TCID50/mL: 6.56 ± 0.18 Log10 TCID50/mL
[1]; [11]
  LRF ± 95% CL: 0.29 ± 0.26
  Log10 TCID50/mL: 6.63 ± 0.19 Log10 TCID50/mL
[1]; [12]
  LRF ± 95% CL: 0.36 ± 0.28
  Log10 TCID50/mL: 6.56 ± 0.22 Log10 TCID50/mL
[1]; 0.15% Mega 10 alone, neutralized mAb2 protein A eluate, 0 minutes (Table 3)
  LRF ± 95% CL: 0.99 ± 0.30
[1]; 0.15% Mega 10 alone, neutralized mAb2 protein A eluate, 2.5 minutes (Table 3)
  LRF ± 95% CL: 1.62 ± 0.30
[1]; 0.15% Mega 10 alone, neutralized mAb2 protein A eluate, 5 minutes (Table 3)
  LRF ± 95% CL: 1.68±0.31
[1]; 0.15% Mega 10 alone, neutralized mAb2 protein A eluate, 5 minutes (Table 3), listed as Mega 10
  LRF ± 95% CL: 1.68 ± 0.31
[1]; 0.15% Mega 10 alone, neutralized mAb2 protein A eluate, 10 minutes (Table 3)
  LRF ± 95% CL: 1.94 ± 0.32
[1]; 0.15% Mega 10 alone, neutralized mAb2 protein A eluate, 30 minutes (Table 3)
  LRF ± 95% CL: 1.94 ± 0.32
[1]; [13]
  LRF ± 95% CL: 2.91 ± 0.32
  Log10 TCID50/mL: 3.88 ± 0.25 Log10 TCID50/mL
[1]; 0.2% Mega-10, neutralized mAb1 protein A eluate pH 7.01, incubation 2.5 minutes
  Log10 TCID50/mL: ≤1.21 Log10 TCID50/mL
[1]; [14]
  LRF ± 95% CL: ≥5.58 ± 0.19
  Log10 TCID50/mL: ≤1.21 Log10 TCID50/mL
[1]; [15]
  LRF ± 95% CL: ≥5.58 ± 0.19
  Log10 TCID50/mL: ≤1.21 Log10 TCID50/mL
[1]; [16]
  LRF ± 95% CL: ≥5.58 ± 0.19
  Log10 TCID50/mL: ≤1.21 Log10 TCID50/mL
[1]; 0.2% Mega-10, neutralized mAb1 protein A eluate
  treatment time to inactivate X-MuLV to the level below the detection limit: 2.5 min
[1]; [17]
  LRF ± 95% CL: 4.73 ± 0.46
  Log10 TCID50/mL: 2.19 ± 0.43 Log10 TCID50/mL
[1]; [18]
  LRF ± 95% CL: 5.31±0.75
  Log10 TCID50/mL: 1.61 ± 0.73 Log10 TCID50/mL
[1]; [19]
  LRF ± 95% CL: 5.31 ± 0.75
  Log10 TCID50/mL: 1.61 ± 0.73 Log10 TCID50/mL
[1]; [20]
  LRF ± 95% CL: 5.50 ± 0.90
  Log10 TCID50/mL: 1.42 ± 0.88 Log10 TCID50/mL
[1]; 0.2% Mega-10, neutralized mAb2 protein A eluate pH 7.01, incubation 30 minutes
  Log10 TCID50/mL: ≤1.11 ± 0.27 Log10 TCID50/mL
[1]; [21]
  LRF ± 95% CL: 3.79 ± 0.33
  Log10 TCID50/mL: 3.00 ± 0.27 Log10 TCID50/mL
[1]; 0.3% Mega-10, neutralized mAb1 protein A eluate pH 7.01, incubation 2.5 minutes
  Log10 TCID50/mL: ≤1.21 Log10 TCID50/mL
[1]; [22]
  LRF ± 95% CL: ≥5.58 ± 0.19
  Log10 TCID50/mL: ≤1.21 Log10 TCID50/mL
[1]; [23]
  LRF ± 95% CL: ≥5.58 ± 0.19
  Log10 TCID50/mL: ≤1.21 Log10 TCID50/mL
[1]; [24]
  LRF ± 95% CL: ≥5.58 ± 0.19
  Log10 TCID50/mL: ≤1.21 Log10 TCID50/mL
[1]; 0.3% Mega-10, neutralized mAb1 protein A eluate
  treatment time to inactivate X-MuLV to the level below the detection limit: 2.5 min
[1]; [25]
  LRF ± 95% CL: 4.73 ± 0.46
  Log10 TCID50/mL: 2.19 ± 0.43 Log10 TCID50/mL
[1]; 0.3% Mega-10, neutralized mAb2 protein A eluate pH 7.01, incubation 2.5 minutes
  Log10 TCID50/mL: ≤1.11 Log10 TCID50/mL
[1]; [26]
  LRF ± 95% CL: ≥5.81 ± 0.18
  Log10 TCID50/mL: ≤1.11 Log10 TCID50/mL
[1]; [27]
  LRF ± 95% CL: ≥5.81 ± 0.18
  Log10 TCID50/mL: ≤1.11 Log10 TCID50/mL
[1]; [28]
  LRF ± 95% CL: ≥5.81 ± 0.18
  Log10 TCID50/mL: ≤1.11 Log10 TCID50/mL
[1]; 0.3% Mega-10, neutralized mAb2 protein A eluate
  treatment time to inactivate X-MuLV to the level below detection: 2.5 min
[2]
  toxicity to the aquatic environment: without toxicity to the aquatic environment; also recorded: no toxicity to the aquatic environment
